pIC50: −log10 of the molar value. Like-named read-outs stand apart in the source and are kept apart here.
Experiments:
[1] = tested on: HCV replicon cells Huh 9B; test: HCV replicon assay (luciferase readout); format: cell-based
Procedure: (§1) HCV replicon cells Huh 9B (ReBlikon), containing the firefly luciferase-ubiquitin-neomycin phosphotransferase fusion protein and EMCV-IRES driven HCV polyprotein with cell culture adaptive mutations.
Cells were cultured at 37° C. in a 5% CO2 environment and split twice a week on seeding at 2×10^6 cells/flask on day 1 and 1×10^6 3 days later. G418 at 0.5 mg/ml was added to the culture medium but not the assay medium.
The culture medium consisted of DMEM with […] glucose and glutamax (Gibco 61965-026) supplemented with 1× non-essential amino acids (Invitrogen 11140-035), penicillin (100 IU/ml)/streptomycin (100 μg/ml) (Invitrogen 15140-122), FCS (10%, 50 ml) and 1 mg/ml G418 (Invitrogen 10131-027) & 10% Australian foetal calf serum (Invitrogen 10099-141).
A flask of cells was trypsinised and a cell count carried out. Cells were diluted to 100,000 cells/ml and 100 μl of this used to seed one opaque white 96-well plate (for the replicon assay) and one flat-bottomed clear plate (for the tox assay) for every seven compounds to be tested for IC50. Wells G12 and H12 were left empty in the clear plate as the blank. Plates were then incubated at 37° C. in a 5% CO2 environment for 24 h.
(§2) On the following day compound dilutions are made up in medium at twice their desired final concentration in a clear round bottomed plate. All dilutions have a final DMSO concentration of 1%.
Once the dilution plate had been made up, controls and compounds were transferred to the assay plate (containing the cells) at 100 μl /well in duplicate plates. Exception: no compound was added to wells A1 and A2 of either plate and 100 μl of 1% DMSO was added to these instead. Plates were then incubated at 37° C. with 5% CO2 for 72 h.
At the end of the incubation time, the cells in the white plate were harvested by washing 23.5 mM beetle luciferin (Promega E1603), 26 mM ATP (Sigma 0-2060) in […] Tris buffer pH 7.8 aliquoted and stored at −80 C was thawed and diluted 1:50 in luciferase assay buffer (20 mM Tricine (Sigma T-0377), 1.07 mM magnesium carbonate hydroxide (Sigma M-5671), 0.1 mM EDTA (Sigma E-5134), 2.67 mM MgSO4 (BDH 101514Y), 33.3 mM dithiothreitol (Sigma 150460) pH 7.8).
The M injector of the microplate luminometer (Lmax, Molecular Devices) was primed with 5×300 μl injections of the diluted substrate. After 5-60 min incubation in lysis buffer at room temperature, a plate was inserted into the luminometer and 100 μl luciferase assay reagent was added by the injector on the luminometer. The signal was measured using a 1 second delay followed by a 4 second measurement programme.

[2] = tested on: HCV replicon cells Huh 9B; format: cell-based
Procedure: as §1
A flask of cells was trypsinised and a cell count carried out. […] Wells G12 and H12 were left empty in the clear plate as the blank. Plates were then incubated at 37° C. in a 5% CO2 environment for 24 h.
as §2
Exception: no compound was added to wells A1 and A2 of either plate and 100 μl of 1% DMSO was added to these instead. Plates were then incubated at 37° C. with 5% CO2 for 72 h.
The clear plate was stained with 100 μl 0.5% methylene blue in 50% ethanol at room temperature for 1 h, followed by solvation of the absorbed methylene blue in 100 μl per well of 1% lauroylsarcosine. Absorbance of the plate was measured on a microplate spectrophotometer (Molecular Devices) and the absorbance for each concentration of compound expressed as a proportion of the relative DMSO control.

Structure (SMILES)	pIC50 [1]	TD50 [2]	pIC50 ([1]; Hepatitis C virus, 72 h, concentration reducing replicon level (luciferase activity) by 50% vs untreated cell control, 72 h incubation)	TD50 ([2]; concentration reducing total cell area by 50% relative to DMSO controls, methylene blue, absorbance 620 nm, 72 h incubation)
Cc1ccc(C(=O)Nc2ccc(N3CCOCC3)cc2)cc1-c1ccc(C(=O)NCc2cccc(OC(F)(F)F)c2)cc1 [Example 41, 6-Methyl-biphenyl-3,4′-dicarboxylic acid 3-[(4-morpholin-4-yl-phenyl)-amide] 4′-(3-trifluoromethoxy-benzylamide)]	> 6.00	** (key: * < 50 μM; ** > 50 μM)	–	–
Cc1ccc(C(=O)Nc2ccc(N3CCOCC3)cc2)cc1-c1ccc(C(=O)NCc2ccc(Cl)c(C(F)(F)F)c2)cc1 [Example 42, 6-Methyl-biphenyl-3,4′-dicarboxylic acid 4′-(4-chloro-3-trifluoromethyl-benzylamide) 3-[(4-morpholin-4-yl-phenyl)-amide]]	> 6.00	** (key: * < 50 μM; ** > 50 μM)	–	–
Cc1ccc(CNC(=O)c2ccc(-c3cc(C(=O)Nc4ccc(N5CCOCC5)cc4)ccc3C)cc2)cc1Cl [Example 43, 6-Methyl-biphenyl-3,4′-dicarboxylic acid 4′-(3-chloro-4-methyl-benzylamide) 3-[(4-morpholin-4-yl-phenyl)-amide]]	> 6.00	** (key: * < 50 μM; ** > 50 μM)	–	–
Cc1ccc(C(=O)Nc2ccc(N3CCOCC3)cc2)cc1-c1ccc(C(=O)Nc2ccc3[nH]ccc3c2)cc1 [Example 45, 6-Methyl-biphenyl-3,4′-dicarboxylic acid 4′-[(1H-indol-5-yl)-amide] 3-[(4-morpholin-4-yl-phenyl)-amide]]	5.30 to 6.00	** (key: * < 50 μM; ** > 50 μM)	–	–
Cc1ccc(C(=O)Nc2ccc(N3CCOCC3)cc2)cc1-c1ccc(C(=O)Nc2ccc3ncsc3c2)cc1 [Example 46, 6-Methyl-biphenyl-3,4′-dicarboxylic acid 4′-benzothiazol-6-ylamide 3-[(4-morpholin-4-yl-phenyl)-amide]]	< 5.30	** (key: * < 50 μM; ** > 50 μM)	–	–
Cc1ccc(C(=O)Nc2ccc(N3CCOCC3)cc2)cc1-c1ccc(C(=O)NCc2cccc(CNC(=O)OC(C)(C)C)c2)cc1 [Example 47, [3-({[2′-Methyl-5′-(4-morpholin-4-yl-phenylcarbamoyl)-biphenyl-4-carbonyl]-amino}-methyl)-benzyl]-carbamic acid tert-butyl ester]	–	–	< 5.30	** (** > 50 μM)
Cc1ccc(C(=O)Nc2ccc(N3CCOCC3)cc2)cc1-c1ccc(C(=O)Nc2cccc3cc[nH]c23)cc1 [Example 48, 6-Methyl-biphenyl-3,4′-dicarboxylic acid 4′-[(1H-indol-7-yl)-amide] 3-[(4-morpholin-4-yl-phenyl)-amide]]	5.30 to 6.00	** (key: * < 50 μM; ** > 50 μM)	–	–
Cc1ccc(C(=O)Nc2ccc(N3CCOCC3)cc2)cc1-c1ccc(C(=O)NCc2ccccc2Sc2ccccc2CO)cc1 [Example 49, 6-Methyl-biphenyl-3,4′-dicarboxylic acid 4′-[2-(2-hydroxymethyl-phenylsulfanyl)-benzylamide] 3-[(4-morpholin-4-yl-phenyl)-amide]]	> 6.00	** (key: * < 50 μM; ** > 50 μM)	–	–
Cc1ccc(C(=O)Nc2ccc(N3CCOCC3)cc2)cc1-c1ccc(C(=O)Nc2ccc(CN3CCS(=O)(=O)CC3)cc2)cc1 [Example 50, 6-Methyl-biphenyl-3,4′-dicarboxylic acid 4′-{[4-(1,1-dioxo-1lambda*6*-thiomorpholin-4-ylmethyl)-phenyl]-amide} 3-[(4-morpholin-4-yl-phenyl)-amide]]	> 6.00	** (key: * < 50 μM; ** > 50 μM)	–	–
Cc1ccc(C(=O)Nc2ccc(N3CCOCC3)cc2)cc1-c1ccc(C(=O)N[C@H](CO)Cc2c[nH]c3ccccc23)cc1 [Example 51, 6-Methyl-biphenyl-3,4′-dicarboxylic acid 4′-{[(S)-1-hydroxymethyl-2-(1H-indol-3-yl)-ethyl]-amide} 3-[(4-morpholin-4-yl-phenyl)-amide]]	5.30 to 6.00	** (key: * < 50 μM; ** > 50 μM)	–	–
Cc1ccc(C(=O)Nc2ccc(N3CCOCC3)cc2)cc1-c1ccc(C(=O)NCc2cccc(Br)c2)cc1 [Example 52, 6-Methyl-biphenyl-3,4′-dicarboxylic acid 4′-(3-bromo-benzylamide) 3-[(4-morpholin-4-yl-phenyl)-amide]]	5.30 to 6.00	** (key: * < 50 μM; ** > 50 μM)	–	–
Cc1ccc(C(=O)Nc2ccc(N3CCOCC3)cc2)cc1-c1ccc(C(=O)Nc2ccc(N)cc2)cc1 [Example 53, 6-Methyl-biphenyl-3,4′-dicarboxylic acid 4′-[(4-amino-phenyl)-amide] 3-[(4-morpholin-4-yl-phenyl)-amide]]	5.30 to 6.00	** (key: * < 50 μM; ** > 50 μM)	–	–
CNS(=O)(=O)Cc1ccc(NC(=O)c2ccc(-c3cc(C(=O)Nc4ccc(N5CCOCC5)cc4)ccc3C)cc2)cc1 [Example 54, 6-Methyl-biphenyl-3,4′-dicarboxylic acid 4′-[(4-methylsulfamoylmethyl-phenyl)-amide] 3-[(4-morpholin-4-yl-phenyl)-amide]]	5.30 to 6.00	** (key: * < 50 μM; ** > 50 μM)	–	–
Cc1ccc(C(=O)Nc2ccc(N3CCOCC3)cc2)cc1-c1ccc(C(=O)Nc2cc(Br)cc3cc[nH]c23)cc1 [Example 55, 6-Methyl-biphenyl-3,4′-dicarboxylic acid 4′-[(5-bromo-1H-indol-7-yl)-amide] 3-[(4-morpholin-4-yl-phenyl)-amide]]	5.30 to 6.00	** (key: * < 50 μM; ** > 50 μM)	–	–
Cc1ccc(C(=O)Nc2ccc(N3CCOCC3)cc2)cc1-c1ccc(C(=O)Nc2ccc(-c3cc[nH]n3)cc2)cc1 [Example 56, 6-Methyl-biphenyl-3,4′-dicarboxylic acid 3-[(4-morpholin-4-yl-phenyl)-amide] 4′-{[4-(1H-pyrazol-3-yl)-phenyl]-amide}]	> 6.00	* (key: * < 50 μM; ** > 50 μM)	–	–
Cc1ccc(C(=O)Nc2ccc(N3CCOCC3)cc2)cc1-c1ccc(C(=O)NCc2cccc(Cl)c2F)cc1 [Example 57, 6-Methyl-biphenyl-3,4′-dicarboxylic acid 4′-(3-chloro-2-fluoro-benzylamide) 3-[(4-morpholin-4-yl-phenyl)-amide]]	5.30 to 6.00	** (key: * < 50 μM; ** > 50 μM)	–	–
Cc1ccc(C(=O)Nc2ccc(N3CCOCC3)cc2)cc1-c1ccc(C(=O)Nc2ccc(C(=O)N3CCCCC3)cc2)cc1 [Example 58, 6-Methyl-biphenyl-3,4′-dicarboxylic acid 3-[(4-morpholin-4-yl-phenyl)-amide] 4′-{[4-(piperidine-1-carbonyl)-phenyl]-amide}]	5.30 to 6.00	** (key: * < 50 μM; ** > 50 μM)	–	–
O=C(Nc1ccc2[nH]ccc2c1)c1ccc(-c2cccc(C(=O)Nc3ccc(N4CCOCC4)cc3)c2)cc1 [Example 59, Biphenyl-3,4′-dicarboxylic acid 4′-[(1H-indol-5-yl)-amide] 3-[(4-morpholin-4-yl-phenyl)-amide]]	5.30 to 6.00	** (key: * < 50 μM; ** > 50 μM)	–	–
O=C(Nc1ccc2cc[nH]c2c1)c1ccc(-c2cccc(C(=O)Nc3ccc(N4CCOCC4)cc3)c2)cc1 [Example 60, Biphenyl-3,4′-dicarboxylic acid 4′-[(1H-indol-6-yl)-amide] 3-[(4-morpholin-4-yl-phenyl)-amide]]	> 6.00	* (key: * < 50 μM; ** > 50 μM)	–	–
CC(=O)Nc1cccc(NC(=O)c2ccc(-c3cc(C(=O)Nc4ccc(N5CCOCC5)cc4)ccc3C)cc2)c1 [Example 61, 6-Methyl-biphenyl-3,4′-dicarboxylic acid 4′-[(3-acetylamino-phenyl)-amide] 3-[(4-morpholin-4-yl-phenyl)-amide]]	5.30 to 6.00	** (key: * < 50 μM; ** > 50 μM)	–	–

— US8008303B2, “Biphenyl derivatives and their use in treating hepatitis C” (AstraZeneca AB, priority 2005, dated 2011)
